24 compounds from patent publication US20220289732A1, “HETEROCYCLIC WDR5 INHIBITORS AS ANTI-CANCER COMPOUNDS” (NOVARTIS AG, priority 2019, published 2022) can be followed below.

One assay addresses WDR5 (Homo sapiens, UniProt P61964). Description: WDR5 HTRF binding assay. The conditions noted are these: read-out: (a) WDR5 HTRF Pep Val v.1[Inhibitor/IC50]Qualified AC50. Summed up:
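In this HTRF displacement format, biotinylated MLL1 WIN peptide (3762-3773, 20 nM) binds WDR5 (6 nM) in 25 mM Hepes pH 7.5 with 100 mM NaCl, 2 mM DTT and 0.1% BSA for 20 min at rt. Detection used streptavidin-APC/anti-His-Eu for 1 hr. IC50 came from dose-response fits of normalized signal; 15 nM biotin-PEG-His peptide served as counter assay.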
Background: TR-FRET usually uses a lanthanide donor and a delayed reading to cut background.

Assay [1] deals with wild type MLL1 four-member complex (MLL1-4C) (Homo sapiens, UniProt P61964). In words: MLL1 LC-MS assay (SAH production). The class given is biochemical. As to conditions: read-out: (b) MLL LCMS Peptide Val.v.1 Qualified AC50. In a few lines: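 SAH formation, measured by LC-MS/MS after a TFA quench containing d4-SAH, was normalised to no-compound and no-enzyme controls and fitted to a dose-response curve for IC50. Reactions ran 120 min at rt (pH 8.0 Tris buffer) with final 30 nM MLL1 four-member complex, 2.5 μM SAM and 10 μM biotinylated H3[1-21] peptide, after a 20-min enzyme/SAM-compound preincubation.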

The subject of another assay is MV4-11 cells. In words: MV4-11 6-day cell growth CTG (CellTiter-Glo) assay. The class given is cell-based. As to conditions: Homo sapiens, MV4-11, 144 h, 6 days, read-out: (c) MLL/WDR5 cell proliferation assay//MLL/WDR5 proliferation MV4:11 Qualified AC50. Summed up: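 IC50 comes from a dose-response fit of % inhibition relative to DMSO controls, with viable cells measured by CellTiter-Glo luminescence. Compounds were tested over 12 points (1:3, starting at 50 μM final) on MV4-11 cells plated at 300/well and grown 6 days.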
In general terms: Cellular ATP, detected with luciferase, serves as a proxy for viable cell number.

Where only a bound is given, the exact number is not on record here.

For `CCOc1cc(C(C)N2CCc3c(cc(CCN(C)CCF)cc3-c3cc(C)ncc3C)C2=O)ncc1C#N` (stereo not drawn) [Example 248], on WDR5, the IC50 was 10 to 1000 nM. The AC50 (in assay [1]; with MV4-11 cells) was 10 to 1000 nM in each case.
For the compound `CCOc1cc(CN2CCc3c(cc(CCN4C[C@@H](O)[C@H]4C)cc3-c3cn(C)c(=O)cc3C(F)(F)F)C2=O)ncc1C#N` [Example 224], on WDR5, the IC50 is 10 to 1000 nM. The AC50 (in assay [1]; in the assay on MV4-11 cells) was 10 to 1000 nM throughout.
On to `CCOc1cc([C@H](C)N2CCc3c(cc(CCN(C)CC)cc3-c3cc(N)ncc3C(F)(F)F)C2=O)ncc1C#N` [Example 202, (S)-6-(1-(5-(2-amino-5-(trifluoromethyl)pyridin-4-yl)-7-(2-(ethyl(methyl)amino)ethyl)-1-oxo-3,4-dihydroisoquinolin-2(1H)-yl)ethyl)-4-ethoxynicotinonitrile], for which the IC50 at WDR5 lay in the range of 10 to 1000 nM. The AC50 (in assay [1]; in the assay with MV4-11 cells) was 10 to 1000 nM in each case.
For the compound `CCOc1cc([C@H](C)N2CCc3c(CN4CC[C@H](F)C4)cc(Cn4ccnc4NC)cc3C2=O)ncc1C#N` [Example 9, 4-ethoxy-6-((S)-1-(5-(((S)-3-fluoropyrrolidin-1-yl)methyl)-7-((2-(methylamino)-1H-imidazol-1-yl)methyl)-1-oxo-3,4-dihydroisoquinolin-2(1H)-yl)ethyl)nicotinonitrile], the IC50 at WDR5 was below 10 nM. In addition, the AC50 (in assay [1]; in the assay with MV4-11 cells) was 10 to 1000 nM in each case.
For the compound `CCOc1cc([C@H](C)N2CCc3c(cc(CCN(C)CC)cc3-c3ccc(F)nc3C)C2=O)ncc1C#N` [Example 111, (S)-4-ethoxy-6-(1-(7-(2-(ethyl(methyl)amino)ethyl)-5-(6-fluoro-2-methylpyridin-3-yl)-1-oxo-3,4-dihydroisoquinolin-2(1H)-yl)ethyl)nicotinonitrile], on WDR5, the IC50 is below 10 nM. For the same compound, the AC50 (in assay [1]; in the assay on MV4-11 cells) was 10 to 1000 nM throughout.
Consider `CCOc1cc([C@H](C)N2CCc3c(cc(CCN4C[C@@H](O)[C@H]4C)cc3-c3cc(C(F)F)cnc3C)C2=O)ncc1C#N` [Example 218], for which the IC50 at WDR5 is below 10 nM. Moreover, the AC50 (in assay [1]; in the assay with MV4-11 cells) was 10 to 1000 nM throughout.
`CNc1nccn1Cc1cc(Br)c2ccn(Cc3ccc(F)c(OC)c3)c(=O)c2c1` [Example 99, 5-bromo-2-(4-fluoro-3-methoxybenzyl)-7-((2-(methylamino)-1H-imidazol-1-yl)methyl)isoquinolin-1(2H)-one]: at WDR5, the IC50 lay in the range of 10 to 1000 nM. In addition, the AC50 (in assay [1]; in the assay with MV4-11 cells) was 10 to 1000 nM in each case.
With `CCOc1cc(CN2CCc3c(cc(CCN(C)CC)cc3-c3cc(C)ncc3Cl)C2=O)ncc1C#N` [Example 133, 6-((5-(5-chloro-2-methylpyridin-4-yl)-7-(2-(ethyl(methyl)amino)ethyl)-1-oxo-3,4-dihydroisoquinolin-2(1H)-yl)methyl)-4-ethoxynicotinonitrile], the IC50 on WDR5 was below 10 nM. For the same compound, the AC50 (in assay [1]; with MV4-11 cells) was 10 to 1000 nM in each case.
`CCOc1cc([C@H](C)N2CCc3c(cc(Cn4ccnc4C)cc3-c3cn(C)c(=O)cc3C(F)(F)F)C2=O)ncc1F` (single isomer, unassigned) [Example 278]: the IC50 on WDR5 was below 10 nM. In addition, the AC50 in assay [1] was 10 to 1000 nM; in the assay on MV4-11 cells, below 10 nM.
On to `CCOc1cc([C@H](C)N2CCc3c(CN4CCOCC4)cc(Cn4ccnc4NC)cc3C2=O)ncc1C#N` [Example 12, (S)-4-ethoxy-6-(1-(7-((2-(methylamino)-1H-imidazol-1-yl)methyl)-5-(morpholinomethyl)-1-oxo-3,4-dihydroisoquinolin-2(1H)-yl)ethyl)nicotinonitrile], for which the IC50 on WDR5 was in the range of 10 to 1000 nM. Further, the AC50 (in assay [1]; in the assay with MV4-11 cells) was 10 to 1000 nM in each case.
In the case of `CCOc1cc(C(C)N2CCc3c(cc(CCN(C)CC)cc3-n3ccnc3)C2=O)ncc1C#N` (stereo not drawn) [Example 208], the IC50 at WDR5 fell in the range of 10 to 1000 nM. Besides, the AC50 in assay [1] fell in the range of 10 to 1000 nM; in the assay on MV4-11 cells, 1000 to 25000 nM.
As to `CCOc1cc(CN2CCc3c(cc(Cn4ccnc4C)cc3-c3cn(C)c(=O)cc3C(F)F)C2=O)ncc1C#N` [Example 299], the IC50 on WDR5 was below 10 nM. Besides, the AC50 (in assay [1]; with MV4-11 cells) was 10 to 1000 nM in each case.
For the compound `CCOc1cc([C@H](C)N2CCc3c(cc(CCN(C)CC)cc3-c3cn(C(F)F)c(=O)cc3Cl)C2=O)ncc1C#N` [Example 174, (S)-6-(1-(5-(4-chloro-1-(difluoromethyl)-6-oxo-1,6-dihydropyridin-3-yl)-7-(2-(ethyl(methyl)amino)ethyl)-1-oxo-3,4-dihydroisoquinolin-2(1H)-yl)ethyl)-4 ethoxynicotinonitrile], the IC50 at WDR5 was below 10 nM. The AC50 (in assay [1]; in the assay on MV4-11 cells) was 10 to 1000 nM in each case.
Take `CNc1nccn1Cc1cc(CN2CCOCC2)c2c(c1)C(=O)N([C@@H](C)c1cnc(F)c(OC)c1)CC2` [Example 8, (S)-2-(1-(6-fluoro-5-methoxypyridin-3-yl)ethyl)-7-((2-(methylamino)-1H-imidazol-1-yl)methyl)-5-(morpholinomethyl)-3,4-dihydroisoquinolin-1(2H)-one]: the IC50 at WDR5 is below 10 nM. The AC50 (in assay [1]; with MV4-11 cells) was 10 to 1000 nM in each case.
Consider `COc1cc(CN2CCc3c(cc(CCN(C)C)cc3-c3cn(C)nc3C(F)(F)F)C2=O)ccc1F` [Example 255], for which the IC50 at WDR5 fell in the range of 10 to 1000 nM. Further, the AC50 in assay [1] fell in the range of 10 to 1000 nM; in the assay with MV4-11 cells, 1000 to 25000 nM.
In the case of `CNc1nccn1Cc1cc2c(c(-c3cc(CO)cnc3Cl)c1)CCN(Cc1ccc(F)c(C#N)c1)C2=O` [Example 69, 5-((5-(2-chloro-5-(hydroxymethyl)pyridin-3-yl)-7-((2-(methylamino)-1H-imidazol-1-yl)methyl)-1-oxo-3,4-dihydroisoquinolin-2(1H)-yl)methyl)-2-fluorobenzonitrile], the IC50 on WDR5 is 10 to 1000 nM. For the same compound, the AC50 (in assay [1]; with MV4-11 cells) was 10 to 1000 nM each time.
As for `CCOc1cc([C@H](C)N2CCc3c(cc(Cn4ccnc4C)cc3-c3nn(C)cc3C)C2=O)ncc1C#N` [Example 277], the IC50 on WDR5 was 10 to 1000 nM. The AC50 (in assay [1]; in the assay on MV4-11 cells) was 10 to 1000 nM in each case.
For the compound `CCOc1cc([C@H](C)N2CCc3c(cc(Cn4ccnc4C)cc3-c3cc(C(F)F)cnc3C)C2=O)ncc1C#N` [Example 282], the IC50 at WDR5 is below 10 nM. Also, the AC50 (in assay [1]; with MV4-11 cells) was 10 to 1000 nM in each case.
Turning to `CCOc1cc([C@H](C)N2CCc3c(cc(Cn4ccnc4C)cc3-c3nn(C)c(=O)cc3C(F)(F)F)C2=O)ncc1C#N` [Example 291], on WDR5, the IC50 lay in the range of 10 to 1000 nM. In addition, the AC50 (in assay [1]; in the assay with MV4-11 cells) was 10 to 1000 nM throughout.
Regarding `CCOc1cc([C@H](C)N2CCc3c(cc(CCN(C)CC)cc3-c3cc(N)ncc3Cl)C2=O)ncc1C#N` [Example 183, (S)-6-(1-(5-(2-amino-5-chloropyridin-4-yl)-7-(2-(ethyl(methyl)amino)ethyl)-1-oxo-3,4-dihydroisoquinolin-2(1H)-yl)ethyl)-4-ethoxynicotinonitrile], at WDR5, the IC50 is below 10 nM. The AC50 (in assay [1]; in the assay with MV4-11 cells) was 10 to 1000 nM in each case.
Take `CCOc1cc([C@H](C)N2CCc3c(cc(CCN(C)CC)cc3-c3cn(C)c(=O)cc3C)C2=O)ncc1C#N` [Example 131, (S)-6-(1-(5-(1,4-dimethyl-6-oxo-1,6-dihydropyridin-3-yl)-7-(2-(ethyl(methyl)amino)ethyl)-1-oxo-3,4-dihydroisoquinolin-2(1H)-yl)ethyl)-4 ethoxynicotinonitrile]: the IC50 on WDR5 is below 10 nM. For the same compound, the AC50 (in assay [1]; in the assay with MV4-11 cells) was 10 to 1000 nM throughout.
`CCOc1cc([C@H](C)N2CCc3c(cc(CCN(C)CC)cc3-c3ccn(C)c(=O)c3C)C2=O)ncc1C#N` [Example 161, (S)-6-(1-(5-(1,3-dimethyl-2-oxo-1,2-dihydropyridin-4-yl)-7-(2-(ethyl(methyl)amino)ethyl)-1-oxo-3,4-dihydroisoquinolin-2(1H)-yl)ethyl)-4-ethoxynicotinonitrile]: the IC50 at WDR5 is below 10 nM. For the same compound, the AC50 (in assay [1]; in the assay with MV4-11 cells) was 10 to 1000 nM each time.
As for `CNc1nccn1Cc1cc(CN2CC(F)(F)C2)c2c(c1)C(=O)N(Cc1cc(OC)c(F)cn1)CC2` [Example 38, 5-((3,3-difluoroazetidin-1-yl)methyl)-2-((5-fluoro-4-methoxypyridin-2-yl)methyl)-7-((2-(methylamino)-1H-imidazol-1-yl)methyl)-3,4-dihydroisoquinolin-1(2H)-one], on WDR5, the IC50 is 10 to 1000 nM. The AC50 (in assay [1]; with MV4-11 cells) was 10 to 1000 nM each time.
For `CCOc1cc([C@H](C)N2CCc3c(cc(CCN(C)CCOC)cc3-c3cc(C)ncc3C)C2=O)ncc1C#N` [Example 232], the IC50 on WDR5 is below 10 nM. Further, the AC50 (in assay [1]; in the assay with MV4-11 cells) was 10 to 1000 nM each time.
